Tested on: Vemurafenib-progressing melanoma tumors
Assay: Melanoma GEM model B-raf V600E; PTEN fl/fl; TyCreER, Vemurafenib-progressing tumors
Assay type: in vivo, mouse
Conditions: 2nd line after first line Vemurafenib; GDC-0973 7.5 mg/kg PO qd; anti-PDL1 10 mg/kg IP three times weekly
Excerpt: A melanoma GEM model B-raf^V600E; PTEN^fl/fl; TyCreER was used.
Animals were enrolled into the study once their tumors reached a size greater than or equal to 400 mm^3.
Prior to beginning treatment, each mouse received a biopsy of a melanoma tumor. After the biopsy, mice were allowed to recover for up to one week prior to receiving treatment. Mice were assigned into initial treatment groups (n=20), and treatment commenced at day 0.
When animals in any group reached ˜2000 mm^3, the tumors were biopsied a second time. After the biopsy procedure, mice recovered for up to one week prior to receiving further therapeutic treatment.
Mice were weighed and tumors measured at least once a week until study termination. Mice received treatment each day until a mean tumor volume of 2500 mm^3 was achieved. Mice were then euthanized, and melanoma tumors were collected for histology and assessing molecular changes. Mice were perfused under anesthesia at euthanasia.
Throughout the study, mice were monitored for clinical appearance (body condition, coat appearance, posture, labored breathing, etc.) at least 2 times a week, with increasing frequency, up to daily, depending on severity of adverse clinical signs observed. Moribund animals were euthanized. Mice with a body condition score <2 were euthanized.

O=C(c1ccc(F)c(F)c1Nc1ccc(I)cc1F)N1CC(O)([C@@H]2CCCCN2)C1 [Cobimetinib, Methanone, [3,4-difluoro-2-[(2-fluoro-4-iodophenyl)amino]phenyl][3-hydroxy-3-(2S)-2-piperidinyl-1-azetidinyl]-]
effect on tumor growth (percent tumor volume change over time, FIG. 1): initial tumor regression, but this response was not sustained and tumor re-growth was observed

Source: patent US10946093B2, “Methods of treating cancer using PD-1 axis binding antagonists and MEK inhibitors” (Genentech, Inc., priority 2014, dated 2021)
